Assay results as given in US6403626B1, “Benzimidazole derivatives” (Synaptic Pharmaceutical Corporation, priority 1994, dated 2002).
Like-named read-outs stand apart in the source and are kept apart here.

What was measured:
[1] = target: T1, α1B Human Adrenergic Receptor (Homo sapiens, UniProt P35368); assay: Equilibrium competition binding, [3H] prazosin, membranes of transfected LM(tk-) cells
T1 construct: The entire coding region of α1B(1563 bp); expressed in transfected cells; host or cells: LM(tk-) cells
T1 sequence (P35368 1-520): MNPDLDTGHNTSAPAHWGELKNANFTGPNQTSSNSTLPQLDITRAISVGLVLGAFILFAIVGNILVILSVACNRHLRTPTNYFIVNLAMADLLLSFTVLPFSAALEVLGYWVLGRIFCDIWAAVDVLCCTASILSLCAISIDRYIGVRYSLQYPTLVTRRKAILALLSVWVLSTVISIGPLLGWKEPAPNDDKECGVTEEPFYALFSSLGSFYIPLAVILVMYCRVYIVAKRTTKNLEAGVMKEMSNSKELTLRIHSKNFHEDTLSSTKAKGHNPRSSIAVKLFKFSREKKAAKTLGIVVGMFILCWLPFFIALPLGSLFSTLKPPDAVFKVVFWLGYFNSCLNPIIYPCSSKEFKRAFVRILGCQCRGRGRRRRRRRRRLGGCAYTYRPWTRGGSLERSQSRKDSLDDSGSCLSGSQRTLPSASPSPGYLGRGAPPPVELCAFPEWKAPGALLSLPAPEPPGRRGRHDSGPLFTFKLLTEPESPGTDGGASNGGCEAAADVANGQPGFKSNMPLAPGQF
Method: (§1) Binding and functional assays were performed using stably transfected human alpha adrenergic receptors. Equilibrium competition binding assays were performed with membrane preparations from cultured LM(tk-) cells stably transfected with the cloned human adrenoceptor subtypes except for α2b, which was expressed in Y-1 cells, using [^3H] prazosin for α1 receptors and [^3H] rauwolscine for α2 receptors.
(§2) Transfected cells from culture flasks were scraped into 5 ml of 5 mM Tris-HCl, 5 mM EDTA, pH 7.5, and lysed by sonication. The cell lysates were centrifuged at 1000 rpm for 5 min at 4° C., and the supernatant was centrifuged at 30,000×g for 20 min at 4° C. The pellet was suspended in 50 mM Tris-HCl, 1 mM MgCl2, and 0.1% ascorbic acid at pH 7.5. Binding of α2 antagonist [^3H] rauwolscine ([…]) to membrane preparations of LM(tk-) cells was done in a final volume of 0.25 ml and incubated at 37° C. for 20 min. Nonspecific binding was determined in the presence of 10 μM phentolamine. The reaction was stopped by filtration through GF/B filters using a cell harvester.
The construct involved ligating the full-length containing EcoRI brainstem cDNA fragment from ZapII into the expression vector. The stable cell lines were selected as described above.

[2] = target: T2, α2B Human Adrenergic Receptor (Homo sapiens, UniProt P18089); assay: Equilibrium competition binding, [3H] rauwolscine, membranes of transfected Y-1 cells
T2 construct: expressed in transfected cells; host or cells: Y-1 cells
T2 sequence (P18089 1-450): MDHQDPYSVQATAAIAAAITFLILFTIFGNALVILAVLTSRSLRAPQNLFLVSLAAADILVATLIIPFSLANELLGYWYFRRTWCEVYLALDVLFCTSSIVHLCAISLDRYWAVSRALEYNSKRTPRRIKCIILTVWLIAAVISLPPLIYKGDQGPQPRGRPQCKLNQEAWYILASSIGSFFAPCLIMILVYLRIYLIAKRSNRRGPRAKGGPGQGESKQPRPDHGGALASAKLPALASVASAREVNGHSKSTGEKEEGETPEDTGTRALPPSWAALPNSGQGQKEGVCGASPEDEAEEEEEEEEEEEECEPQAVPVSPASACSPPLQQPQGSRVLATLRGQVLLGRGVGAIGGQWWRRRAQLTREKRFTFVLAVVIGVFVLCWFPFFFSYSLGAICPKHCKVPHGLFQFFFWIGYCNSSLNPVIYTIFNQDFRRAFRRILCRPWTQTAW
Method: as §1
(§3) Stable cell lines were selected as described above.
as §2

[3] = target: T3, α1C Human Adrenergic Receptor (Homo sapiens, UniProt P35348); assay: Equilibrium competition binding, [3H] prazosin, membranes of transfected LM(tk-) cells
T3 construct: expressed in transfected cells; host or cells: LM(tk-) cells
T3 sequence (P35348 1-466): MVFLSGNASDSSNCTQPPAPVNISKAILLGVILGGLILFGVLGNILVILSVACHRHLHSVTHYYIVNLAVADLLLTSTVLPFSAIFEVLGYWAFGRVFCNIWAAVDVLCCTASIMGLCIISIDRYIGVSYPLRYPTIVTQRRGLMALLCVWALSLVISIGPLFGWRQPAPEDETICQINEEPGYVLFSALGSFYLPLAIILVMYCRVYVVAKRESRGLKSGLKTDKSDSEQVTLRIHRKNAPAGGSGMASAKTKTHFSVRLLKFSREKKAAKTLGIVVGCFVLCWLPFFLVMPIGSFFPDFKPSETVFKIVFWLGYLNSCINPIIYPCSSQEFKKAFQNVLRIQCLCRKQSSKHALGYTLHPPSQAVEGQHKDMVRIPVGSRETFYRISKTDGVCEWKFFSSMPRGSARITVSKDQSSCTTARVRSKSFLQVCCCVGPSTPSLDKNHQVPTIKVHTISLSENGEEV
Method: as §1, §2
The construct involved ligation three partial overlapping fragments: a 5′ 0.6 kb HincII genomic clone, a central 1.8 EcoRI hippocampal cDNA clone, and a 3′ 0.6 Kb PstI genomic clone. The hippocampal cDNA fragment overlaps with the 5′ and 3′ genomic clones so that the HincII and PstI sites at the 5 and 3′ ends of the cDNA clone, respectively, were utilized for ligation. This full-length clone was cloned into the KpnI site of the expression vector, using the 5′ and 3′ KpnI sites of the fragment, derived from vector (i.e., pBluescript) and 3′-untranslated sequences, respectively. Stable cell lines were selected as described above.

[4] = target: T4, α2C Human Adrenergic Receptor (Homo sapiens, UniProt P18825); assay: Equilibrium competition binding, [3H] rauwolscine, membranes of transfected LM(tk-) cells
T4 sequence (P18825 1-462): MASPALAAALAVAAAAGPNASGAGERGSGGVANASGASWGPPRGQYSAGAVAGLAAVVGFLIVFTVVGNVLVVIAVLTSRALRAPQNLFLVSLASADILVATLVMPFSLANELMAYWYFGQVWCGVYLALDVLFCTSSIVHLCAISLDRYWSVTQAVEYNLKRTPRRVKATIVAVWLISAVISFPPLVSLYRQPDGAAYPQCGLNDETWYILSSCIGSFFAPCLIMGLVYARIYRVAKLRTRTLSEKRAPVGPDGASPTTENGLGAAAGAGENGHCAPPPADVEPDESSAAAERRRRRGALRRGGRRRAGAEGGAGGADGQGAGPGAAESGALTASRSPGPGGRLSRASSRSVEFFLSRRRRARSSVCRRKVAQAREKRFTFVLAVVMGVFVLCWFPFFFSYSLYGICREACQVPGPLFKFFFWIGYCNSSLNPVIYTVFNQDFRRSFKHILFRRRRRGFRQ

[5] = target: T5, α1A Human Adrenergic Receptor (Homo sapiens, UniProt P25100); assay: Equilibrium competition binding, [3H] prazosin, membranes of transfected LM(tk-) cells
T5 construct: expressed in transfected cells; host or cells: LM(tk-) cells
T5 sequence (P25100 1-572): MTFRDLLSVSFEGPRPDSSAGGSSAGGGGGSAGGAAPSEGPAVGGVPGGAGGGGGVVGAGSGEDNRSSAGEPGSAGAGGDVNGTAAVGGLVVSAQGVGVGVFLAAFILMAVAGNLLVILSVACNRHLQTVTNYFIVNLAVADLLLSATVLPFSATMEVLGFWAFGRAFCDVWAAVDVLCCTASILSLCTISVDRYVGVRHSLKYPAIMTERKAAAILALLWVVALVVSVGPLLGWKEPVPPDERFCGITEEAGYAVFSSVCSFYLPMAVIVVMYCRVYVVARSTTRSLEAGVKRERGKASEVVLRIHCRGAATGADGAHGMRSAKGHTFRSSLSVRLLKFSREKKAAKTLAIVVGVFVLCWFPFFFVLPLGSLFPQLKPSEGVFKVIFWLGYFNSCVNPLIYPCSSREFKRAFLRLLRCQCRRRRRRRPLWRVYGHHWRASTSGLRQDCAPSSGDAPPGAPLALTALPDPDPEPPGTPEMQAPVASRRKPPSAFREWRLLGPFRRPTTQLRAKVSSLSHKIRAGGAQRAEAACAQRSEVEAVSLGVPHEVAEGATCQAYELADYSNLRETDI
Method: as §1, §2, §3

[6] = target: T2, α2B Human Adrenergic Receptor; type: cell-based
Method: as §1, §3
(§4) The agonist activity (expressed as pEC50) was measured as a function of the ability to inhibit the forskolin-stimulated synthesis of cyclic adenosine monophosphate (cAMP). The stably transfected cells were incubated in Ham's F10 with 5 mM theophylline, 10 mM HEPES, 10 μM pargyline, and/or appropriate concentrations of forskolin for 20 min at 37° C. in 5% CO2. The tested compounds were then added to a final concentration of 0.001 nM to 1 μM and incubated for an additional 15 min at 37° C. in 5% CO2. The medium was aspirated and the reaction was stopped by the addition of 100 mM HCl . […] The plates are stored at 4° C. for 15 min and assayed to determine the linear concentration of cAMP. The appropriate dilution is interpolated from the standard curve of cold cAMP. The assessment of cAMP formation is determined by radioimmunoassay (cAMP radioimmunoassay kit; Advanced Magnetics, Cambridge, Mass.). Radioactivity was quantified using a Packard COBRA Auto Gamma counter, equipped with data reduction software.

[7] = target: T4, α2C Human Adrenergic Receptor; type: cell-based; set-up: The entire coding region of α2C (1383 bp), including 2 bp of 5′ UT and 400 bp of 3′ UT; expressed in transfected cells; host or cells: LM(tk-) cells; details: for I.A Alpha-2 C: functional cAMP assay
Method: as §1
The insert housing this coding region was an @ 1.8 kb Ncol/EcoRI human spleen genomic fragment which was end-blunted by either T4 polymerase or Klenow fragment of DNA polymerase. Stable cell lines were selected as described above.
as §4

[8] = cloned human receptor, [3H] prazosin, read-out: pKi Alpha-1 B (converted)
[9] = cloned human receptor, [3H] prazosin, read-out: pKi Alpha-1 C (converted)
[10] = cloned human receptor, [3H] rauwolscine, read-out: pKi Alpha-2 B (converted)
[11] = cloned human receptor, [3H] prazosin, read-out: pKi Alpha-1 A (converted)

Compound	Ki [1, 8] [µM]	Ki [2] [µM]	Ki [3, 9] [µM]	Ki [4] [µM]	Ki [5] [µM]	Ki [2, 10] [µM]	Ki [5, 11] [µM]	Ki [1] [µM]	Ki [3] [µM]	melting point [°C]	EC50 [6] [µM]	I.A Alpha-2 B [6]	EC50 [7] [µM]	I.A Alpha-2 C [7]
CC(C)Cn1cnc2cc(NC3=NCCN3)ccc21 [Example 22, 1-Isobutyl-5-(2-imidazolin-2-ylamino)Benzimidazole]	105	0.427	1.86	0.182	10.5									
Brc1c(NC2=NCCN2)ccc2c1ncn2C1CCCC1 [Example 26, 1-Cyclopentyl-4-bromo-5-(2-imidazolin-2-ylamino)Benzimidazole]	57.5		9.55	0.257		0.562	8.91							
CCCn1cnc2ccc(NC3=NCCN3)c(Br)c21 [Example 16, 3-Propyl-4-bromo-5-(2-imidazolin-2-ylamino)Benzimidazole]	0.513		0.417		0.055	0.0123								
CCCn1cnc2ccc(NC3=NCCN3)cc21 [Example 15, 3-Propyl-5-(2-imidazolin-2-ylamino)Benzimidazole]	34.7		4.9	0.871	6.46	0.724								
c1cc2c(cc1NC1=NCCN1)ncn2CC1CCCCC1 [Example 29, 1-Cyclohexylmethyl-5-(2-imidazolin-2-ylamino)Benzimidazole]	20.9		1.41	0.49		0.363	0.912							
c1ccc(Cn2cnc3cc(NC4=NCCN4)ccc32)cc1 [Example 32, 1-Benzyl-5-(2-imidazolin-2-ylamino)Benzimidazole]				0.162	3.72	0.0501		33.1	3.89					
NCCn1cnc2c(Br)c(NC3=NCCN3)ccc21 [Example 40, 1-(2-Aminoethyl)-4-bromo-5-(2-imidazolin-2-ylamino)Benzimidazole]	26.9		9.12	2.82		0.955	9.33							
CC(C)Cn1cnc2ccc(NC3=NCCN3)c(Br)c21 [Example 24, 3-Isobutyl-4-bromo-5-(2-imidazolin-2-ylamino)Benzimidazole]	4.9	0.0129	0.251		0.309									
Cc1cc(NC2=NCCN2)c(Br)c2[nH]cnc12 [Example 59, 4-Bromo-7-methyl-5-(2-imidazolin-2-ylamino)Benzimidazole]		0.00794		0.0166						242 to 244	0.0407	0.90	0.00129	1.00
CC(C)n1cnc2ccc(NC3=NCCN3)c(Br)c21 [Example 21, 3-Isopropyl-4-bromo-5-(2-imidazolin-2-ylamino)Benzimidazole]	4.68		1.2		0.741	0.0214								
Brc1cc(NC2=NCCN2)c(Br)c2[nH]cnc12 [Example 58, 4,7-Dibromo-5-(2-imidazolin-2-ylamino)Benzimidazole]		0.174		0.0309						320 to 321	0.0282	0.50	0.00324	1.00
